From EPA's ToxValDB 9.5 (doi:10.2903/j.efsa.2016.4518)

Experiments:
Anas platyrhynchos = conditions: reproductive; duration: 20 weeks
Apis mellifera = conditions: acute, mortality
Bibionidae = conditions: chronic/long-term; duration: 28 days
Canidae = conditions: oral, Dog Other, hematological
Colinus virginianus = conditions: acute, oral, mortality
Hypoaspis aculeifer = conditions: chronic/long-term; duration: 21 days; mortality
Pimephales promelas = conditions: chronic/long-term; duration: 264 days; other
Tagia sp. = conditions: chronic/long-term; duration: 56 days; mortality
Poecilus cupreus = experiment: LR50; higher = less toxic; conditions: not reported; duration: 19 days; mortality
Typhlodromus pyri = experiment: LR50; higher = less toxic; conditions: not reported; duration: 7 days; mortality

Question: For `CON(C)C(=O)Nc1ccc(Cl)c(Cl)c1` [Linuron], which NOAEL (Anas platyrhynchos) is on record?
Answer: Its NOAEL is 13.9 mg/kg-day.

Question: And the LD50 (Apis mellifera; dermal)?
Answer: Its LD50 is > 97.8 µg/piece.

Question: What about the LD50 (Apis mellifera; oral, unspecified) of the same compound?
Answer: Its LD50 is > 112 µg/piece.

Question: What about the NOEC (Bibionidae) of the same compound?
Answer: The NOEC was 9.5 mg/kg.

Question: And the NOAEL (Canidae; chronic, duration: 1 years)?
Answer: Its NOAEL is 0.9 mg/kg-day.

Question: And the NOAEL (Canidae; subchronic, duration: 90 days)?
Answer: Its NOAEL is 0.9 mg/kg-day.

Question: What about the LD50 (Colinus virginianus; diet) of the same compound?
Answer: The LD50 was 121 mg/kg-day.

Question: And the LD50 (Colinus virginianus)?
Answer: The LD50 was 314 mg/kg-day.

Question: And the NOEC (Hypoaspis aculeifer)?
Answer: Its NOEC is 3.39 mg/kg.

Question: And the NOEC (Pimephales promelas)?
Answer: The NOEC was 97 µg/L.

Question: What about the LD50 (Rattus norvegicus; acute, oral, mortality) of the same compound?
Answer: The LD50 was 1000 mg/kg.

Question: And the LOAEL (Rattus norvegicus; chronic, duration: 2 years, other)?
Answer: The LOAEL was 1.3 mg/kg-day.

Question: What about the NOAEL (Rattus norvegicus; reproduction developmental, body weight) of the same compound?
Answer: The NOAEL was 0.8 mg/kg-day.

Question: What about the NOEC (Tagia sp.) of the same compound?
Answer: Its NOEC is 6.78 mg/kg.

Question: And the LR50 (Poecilus cupreus)?
Answer: The LR50 was > 927 g/ha.

Question: What about the LR50 (Typhlodromus pyri) of the same compound?
Answer: Its LR50 is 42.7 g/ha.
